Source: ChEMBL document CHEMBL4725416, “Structure-Based Discovery of Novel Ligands for the Orexin 2 Receptor” (J Med Chem, 2020)
Activity calls are given as the source filed them. The rule behind the calls is not given here.

Assays:
Format in all cases: cell-based
[1] = biological target: T1, Orexin/Hypocretin receptor type 1 (Homo sapiens) (UniProt O43613); assay: (§1) Displacement of [3H]-[…] from human orexin 1 receptor expressed in CHO cells incubated for 2 hrs by whole cell radioligand binding assay
T1 sequence (whole entry): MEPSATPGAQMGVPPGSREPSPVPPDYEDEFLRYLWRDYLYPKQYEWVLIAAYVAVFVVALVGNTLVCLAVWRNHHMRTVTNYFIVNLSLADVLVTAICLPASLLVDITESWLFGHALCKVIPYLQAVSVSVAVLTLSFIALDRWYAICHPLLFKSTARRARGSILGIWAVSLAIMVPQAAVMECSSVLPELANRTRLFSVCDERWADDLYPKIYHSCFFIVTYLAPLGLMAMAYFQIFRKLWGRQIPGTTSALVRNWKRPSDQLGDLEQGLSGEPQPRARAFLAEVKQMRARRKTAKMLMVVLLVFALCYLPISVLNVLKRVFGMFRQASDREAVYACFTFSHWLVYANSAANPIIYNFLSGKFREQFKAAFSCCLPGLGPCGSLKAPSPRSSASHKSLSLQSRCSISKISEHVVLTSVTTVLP

[2] = organism: Homo sapiens; assay: (§2) Displacement of [3H]-EMPA from human orexin 2 receptor expressed in CHO cells incubated for 2 hrs by whole cell radioligand binding assay
[3] = as §2; settings: for IC50: CHO
[4] = biological target: T2, Orexin/Hypocretin receptor type 1 (Homo sapiens, UniProt O43613); assay: as §1
T2 sequence (O43613 whole entry): T1 sequence (whole entry)

Compound	IC50 [3] [µM]	IC50 [4] [µM]	also measured
Cc1ccc(C(=O)Oc2ccc(N3C(=O)[C@H]4C5C=CC(C6CC65)[C@@H]4C3=O)cc2)cc1 (stereo partly specified)	–	–	pKi [1]: inactive; pKi [2]: inactive
O=C1c2ccc([N+](=O)[O-])cc2C(=O)N1c1cccc(-c2nc3ccccc3c(=O)o2)c1	–	–	pKi [1]: inactive; pKi [2]: inactive
N[C@H]1CCCN(C(=O)c2cc(-c3ccccc3)nc3ccccc23)CC1	–	–	pKi [1]: inactive; pKi [2]: inactive
Cc1ccc2c(c1)C(=O)N(CCC(=O)N1CCCc3ccccc31)C2=O	–	–	pKi [1]: inactive; pKi [2]: inactive
Cc1ccc(C(=O)N2CCN(Cc3nnc(-c4ccco4)o3)CC2)cc1F	> 100	–	–
Cc1nc(/C=C/C(=O)Oc2ccc3c(=O)c(-c4c(F)cccc4Cl)c(C)oc3c2)cs1	> 100	> 100	–
Cc1ccc(C)c(OCC(=O)Oc2ccc3c(C)cc(=O)oc3c2)c1	–	–	pKi [1]: inactive; pKi [2]: inactive
O=S(=O)([N-]c1nc2ccccc2nc1-[n+]1ccc(Oc2ccccc2)cc1)c1ccccc1	–	–	pKi [1]: inactive; pKi [2]: inactive
O=C(c1ccc(Cl)c(N2CCCC2=O)c1)N1CCN(Cc2cc(=O)n3ccsc3n2)CC1	–	–	pKi [1]: inactive; pKi [2]: inactive
Cc1[nH]c2ccc(C(=O)N3CCN(Cc4ccc5c(c4)OCO5)CC3)cc2c1C	> 100	> 100	–
Cc1noc(CN2CCN(C(=O)c3cc4ccccn4c3)CC2)n1	–	–	pKi [1]: inactive; pKi [2]: inactive
O=C(c1cn(Cc2ccc(F)cc2)cc2c(=O)n(-c3ccccc3)nc1-2)N1CCc2ccccc21	–	–	pKi [1]: inactive; pKi [2]: inactive
Cc1nc(C(=O)N2CCC[C@H]2Cc2nnc(-c3ccccc3)o2)c(-c2ccccc2F)s1	–	–	Ki [4]: 0.00389 µM; pKi [3]: 6.7
CN(C)S(=O)(=O)c1cccc(C(=O)N(CCc2ccccc2)c2nc3ccccc3s2)c1	> 100	–	–
Cn1c(-c2ccccc2)c(C(=O)COC(=O)c2ccc3c(=O)n4c(nc3c2)CCC4)c2ccccc21	–	> 100	pKi [2]: inactive
O=S(=O)(c1ccc2c(c1)OCCO2)N1CCN(Cc2nc(-c3ccco3)cs2)CC1	–	> 100	pKi [2]: inactive
CCCN1C(C)=NS(=O)(=O)c2cc(C(=O)N3CCN(Cc4ccccc4)CC3)ccc21	–	–	pKi [1]: inactive; pKi [2]: inactive
COc1cccc(-c2nc([C@@H]3CC(=O)N(Cc4ccccc4)C3)no2)c1	> 100	> 100	–
CN1C(=O)c2ccc(C(=O)OCCCn3c(=O)[nH]c4ccccc43)cc2C1=O	> 100	> 100	–
COc1cc([C@H]2c3c(oc4ccccc4c3=O)C(=O)N2Cc2ccc(F)cc2)cc(OC)c1OC	–	–	pKi [1]: inactive; pKi [2]: inactive
O=C1CCCN1c1cccc(C(=O)N(Cc2ccc(F)cc2)C2CC2)c1	> 100	–	–
C[C@H](NC(=O)[C@H]1CC(=O)N(c2ccc3c(c2)CCC3)C1)c1cccnc1	–	–	pKi [1]: inactive; pKi [2]: inactive

Compound	IC50 [3] [µM]	IC50 [4] [µM]	also measured
O=C(Oc1cccc2c(OC(=O)c3ccco3)cccc12)c1ccco1	–	–	pKi [1]: inactive; pKi [2]: inactive
O=C(c1ccccc1)[C@H]1CCCN(C(=O)CCc2nc(-c3ccco3)no2)C1	–	> 100	–
O=C1N=C(O)/C(=C\c2ccccc2OCc2ccccc2F)C(=O)N1c1ccc2c(c1)OCO2	–	> 100	–
O=C(c1cnc(-c2ccccc2)s1)N1CCC[C@H]1c1ccncc1	> 100	> 100	–
O=C(Cc1ccc(Cl)cc1)N1CCC(c2noc(-c3ccccn3)n2)CC1	> 100	–	–
Cc1nc(-c2ncccn2)sc1C(=O)OCCn1c(C)nc2ccccc21	> 100	–	–
O=C1Nc2cc(C(=O)N3CCN(Cc4ccc5c(c4)OCO5)CC3)ccc2N2CCCC[C@@H]12	> 100	> 100	–
O=C(/C=C/c1cccc(F)c1)N1CCOc2c(cc(-c3cccnc3)cc2OC[C@H]2CCCCO2)C1	> 100	–	–
Cc1nn(-c2ccccc2)c(N2CCCC2)c1/C=N/n1cnc2c(cnn2-c2ccccc2)c1=O	> 100	> 100	–
O=C(CCCn1nnc2ccccc2c1=O)NC1Cc2ccccc2C1	–	> 100	pKi [3]: 4.4
Cc1ccc2c(C)c(C(=O)N3CCN(Cc4ccccn4)CC3)oc2c1C	> 100	> 100	–
Cc1nc(-c2ccc(Cl)c(S(=O)(=O)N3CCC[C@@H](C(=O)N4CCc5ccccc54)C3)c2)no1	> 100	> 100	–
O=C(CCC(=O)c1ccc2c(c1)OCCO2)Nc1cccc(C#Cc2ccccn2)c1	> 100	> 100	–
COc1cccc(-c2nc(C(=O)OCc3cccnc3)c(C)[nH]2)c1	–	–	Ki [4]: 14.8 µM; pKi [3]: 4.64
CC1(C)OC[C@H](NC(=O)Nc2ccc(Br)cc2Br)[C@H](c2ccccc2)O1	–	–	Ki [4]: 1.35 µM; pKi [3]: 8.18
Cc1ccc([C@H](CCO)n2cc(-c3ccnc4ccccc34)nn2)cc1	> 100	> 100	–
CN(Cc1[nH]cc[n+]1C)C(=O)C[C@H]1CN(Cc2ccccc2)CCO1	–	> 100	pKi [2]: inactive
Cc1ccc(-n2nccn2)c(C(=O)N2CCN(c3nc4cc(Cl)ccc4o3)CC[C@H]2C)c1 [SUVOREXANT]	–	–	pKi [3]: 8.53
CN(Cc1[nH]cc[n+]1C)C(=O)CCCc1c[nH]c2ccccc12	> 100	–	–
O=C1/C(=C/c2ccc(N3CCOCC3)cc2)c2ccccc2N1c1ccccc1	–	–	Ki [4]: 17.8 µM
CN(CCc1cccc2ccccc12)C(=O)c1c[nH]c(=O)c(Cl)c1	–	–	Ki [4]: 14.8 µM; pKi [3]: 4.89
Cc1ccc(C(=O)[C@H](C)Oc2cccc(N3C(=O)C4C5C=CC(C5)C4C3=O)c2)cc1 (stereo partly specified)	> 100	> 100	–

Compound	IC50 [3] [µM]	IC50 [4] [µM]	also measured
O=S(=O)(c1cc(F)cc(F)c1)N1CCN(Cc2csc(-c3ccco3)n2)CC1	> 100	> 100	–
O=C1c2ccccc2C(=O)N1CCc1nc(-c2cnccn2)no1	> 100	–	–
Cc1nc(-c2cc(C)n(CC(=O)N3CCC[C@H]3c3ccncc3)c2C)cs1	–	–	pKi [1]: inactive
COc1ccc2cc(CN(C)C(=O)COC(=O)c3c(F)cccc3F)ccc2c1	–	> 100	–
Cc1cccc(C)c1NC(=O)CCCN1C(=O)c2cccnc2C1=O	–	–	Ki [4]: 33.9 µM; pKi [3]: 4.56
CN(Cc1[nH]cc[n+]1Cc1ccccc1)C(=O)c1cccc2cc[nH][n+]12	> 100	–	–
COc1cc(=O)n2c(c1C(=O)N(C)[C@H](C)c1ccco1)CCN(C(=O)C1(c3ccccc3)CC1)CC2	> 100	> 100	–
c1ccc(-c2n[nH]cc2-c2nc3c(cnn3Cc3ccncc3)[nH]2)cc1	–	–	Ki [4]: 24.5 µM; pKi [3]: 4.82
COc1cccc(CN2CC3(CCN(Cc4nccs4)CC3)CC2=O)c1	> 100	–	–
O=C(c1cc(S(=O)(=O)N2CCOCC2)ccc1Cl)N1CCn2c1nc1ccccc12	> 100	> 100	–
Cc1nc(COc2ccc(C(=O)N3CCC[C@@H]3c3ccc4c(c3)OCCO4)cc2)cs1	–	> 100	–
Cc1cc([C@@H]2CCCCN2C(=O)c2ccc(-c3cc[nH]n3)cc2)no1	> 100	> 100	–
O=C(c1cc2c(s1)-c1ccccc1CC2)N1CCN(Cc2cc(=O)n3ccsc3n2)CC1	> 100	> 100	–
CC(=O)N1N=C(c2cn(C(C)=O)c3ccccc23)O[C@@H]1c1cccnc1	> 100	> 100	–
CCC(=O)N1CCCN([C@@H](C)C(=O)Nc2ccccc2C(C)=O)CC1	> 100	–	–
CCN(Cc1cccnc1)C(=O)CN(c1ccc(OC)nc1)S(=O)(=O)c1ccccc1C	–	–	pKi [3]: 8.17
COc1cc(=O)n2c(c1C(=O)N(C)Cc1nonc1C)CCN(C(=O)C1(c3ccccc3)CC1)CC2	> 100	> 100	–
Fc1ccccc1COc1cccc(CNCc2ccccn2)c1	–	> 100	pKi [3]: 4.28
COc1ccc2c(c1)c(CC(=O)NCc1ccccn1)c(C)n2C(=O)c1ccc(Cl)cc1	> 5	> 5	–
C[C@@H]1CN(c2cccc(Cl)c2)C(=O)CN1C(=O)c1cccc2ccccc12	> 100	> 100	–
O=C(c1ccc(OCc2cn3ccccc3n2)cc1)N1CCC[C@@H]1c1ccc2c(c1)OCCO2	> 100	> 100	–
